According to the NIST ThermoML archive (doi:10.1016/j.tca.2012.08.001):
Numbers after ± are expanded uncertainties.

Legend:
[1] = refractive index (Na D-line) (dimensionless); conditions: 298.2 K; 101.33 kPa; Liquid; Standard Abbe refractometry
[2] = 298.2 K; 101.33 kPa; Liquid; Vibrating tube method

`CCCCCCCCCCO` [decan-1-ol] showed a refractive index [1] of 1.4344 ± 0.2 and a mass density [2] of 826.8 ± 0.36 kg/m3.

For `O=CO` [formic acid], the refractive index [1] was 1.3713 ± 0.2 and the mass density [2] was 1219.32 ± 0.61 kg/m3.

In the case of `O` [water], the refractive index [1] is reported as 1.3324 ± 0.2.
